Measurements: publication PMC7613620, “Reaction hijacking of tyrosine tRNA synthetase as a whole-of-life-cycle antimalarial strategy” (Science (New York, N.Y.), 2022)

Key:
HCT116 = HCT116 cell viability (ATP content); assay type: cell-based; details: Homo sapiens, HCT-116, 72 h, read-out: HCT116 IC50(72h)
Experimental: 574 H1650 is a human lung cancer derived ATG7-null cell line (49) that can be used to assess effects on targets
576 adenocarcinoma; bronchoalveolar carcinoma). Other cells lines used are: H460 (NCI-H460; human lung;
577 carcinoma; large cell lung cancer; ATCC: HTB-177); and HCT116 (human colon; colorectal carcinoma;
578 ATCC: CCL-247; Lot : 5056139). Each of the cell lines was received from the American Type Culture
579 Collection (ATCC) and passaged twice before freezing. Cells were cultured in the presence or absence of
580 inhibitors and cell viability was assessed by comparing the ATP content in compound-treated wells with
581 that in DMSO-treated wells as previously described (11). […]
585 37°C humidified incubator as adherent semi-confluent monolayers in complete Dulbecco’s Modified Eagle
586 Media (c-DMEM). DMEM (Gibco™, Thermo Fisher Scientific, Australia) was supplemented with 10%

[1] = test system: P. falciparum NF54 liver stage parasites; test: P. falciparum NF54 schizont development in primary human hepatocytes; assay type: cell-based; details: Plasmodium falciparum, NF54, Hepatocyte, 96 h
[2] = SCID, mouse, in vivo, ip, 50 mg/kg
Experimental: 625 of 50 mg/kg of compound on day 3 post-infection and measuring the effect on blood parasitemia by
626 microscopic analysis of Giemsa-stained blood smears (on days 3, 4, 5, 6 and 7 post-infection). Mice were
630 Human biological samples were sourced ethically; and their research use was in accord with the terms of
631 the informed consent. All animal studies were ethically reviewed and carried out in accredited facilities in
632 accordance with the relevant country’s directives and the institution’s Policy on the Care, Welfare and
633 Treatment of Animals.
635 Plasma exposure in infected mouse model
637 blood samples (20 μL) were obtained at time points up to 24 hours after the first administration. Protein was
638 precipitated with acetonitrile and the remaining compound was assessed by LC-MS/MS in the selected reaction
641 Rat pharmacokinetics (PK) analyses
642 Sprague-Dawley rats (11 weeks old) were sourced from Hilltop Lab Animals, Inc (Scottdale, Pennsylvania,
643 USA). ML901 was formulated in EtOH: DMAC: PEG400: H2O at 1:1:4:4 (v/v) and 10% captisol in 50 […]
648 0.5% formic acid in methanol and the supernatants were analysed by positive ion electrospray LC-MS for
649 the administered compound. Non-compartmental pharmacokinetic parameters were calculated from […]
660 IGM Genomics Center on the Illumina HiSeq 2500 in RapidRun mode to generate 100bp paired-end reads.

[3] = test system: eIF2α phosphorylation in P. falciparum; test: Western blot for phosphorylated-eIF2α; assay type: cell-based, Plasmodium falciparum
Experimental: Synchronous ring-stage YRScyt conditional knockdown line and the aptamer-regulatable control
700 the drug plate. Lowest drug treatment and a lethal dose of chloroquine (200 nM) served as reference
Two guide RNAs (gRNA1: […] and gRNA2:
Ring-stage P. falciparum parasites (Dd2 strain) at 10%
Using a modification of a published procedure (14), the
722 cells were labelled with O-propargyl-puromycin (OPP; 4 µM) for 1 h, washed 3x (PBS +3% serum) and
Flow cytometry was performed
730 hematocrit and 5% parasitemia. The RBC pellet was washed 3 x in PBS + cOmplete. Cells were centrifuged
The wash with PBS + cOmplete and
The pellet was resuspended in Bolt LDS sample
The samples were vortexed for 10 min at room temperature.
Secondary antibodies: goat
740 anti-rabbit IgG-peroxidase (Sigma-Aldrich-A0545; 1:20 000), goat anti-mouse IgG-peroxidase (Chemicon-
Chemiluminescence was detected using the Bio-Rad ChemiDocTM MP imaging
For the human mature YRS construct,
The YRS sequences were codon optimized for E. coli,
The vector was transformed into
PfYRS, PfYRSS234C and HsYRS were induced
Cell pellets were resuspended in 40 mL lysis
Cells were lysed by sonication (Microtip, QSonica)
The supernatant was applied to a 5
757 mL HisTrap HP column (GE Healthcare) and washed with 50 mL binding buffer containing 50 mM Tris-
His-YRS was eluted using a 0-500 mM
The eluted His-YRS was dialyzed overnight at 4°C
760 against 50 mM Tris-HCl, pH 8, 500 mM NaCl, 30 mM imidazole, 1 mM TCEP with the addition of His-
Cleaved His tags from His-YRS and TEV
YRS was further purified by gel filtration using a HiLoad 16/600 Superdex 200 column (GE

In the case of `Nc1ncnc2c1c(OC(F)F)nn2[C@@H]1O[C@H](COS(N)(=O)=O)[C@@H](O)[C@H]1O` [ML901], the IC50 (HCT116) is reported as 2280 nM, the IC50 [1] is reported as 13 ± 5 nM and the “exposure (area under the curve)” value [2] is reported as 580 µM·h. The eIF2α phosphorylation ([3]; eIK1 knockout parasites) was “does not result in eIF2α phosphorylation” and the eIF2α phosphorylation ([3]; wildtype P. falciparum cultures) was “triggers eIF2α phosphorylation”.
